Like-named read-outs stand apart in the source and are kept apart here.
How the values were obtained:
[1] = test system: Target C; assay: HiBiT protein abundance assay, Target C (K562 HiBiT knock-in); type: cell-based, human; details: HiBiT knock-in K562 cells, 24 hours, top dose 10 μM
Outline: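 K562 HiBiT knock-in cells (10000/well) were treated 24 h at 37° C with a 10-point 3-fold dilution series (top 10 μM final, ≤0.25% DMSO). HiBiT luminescence was read after lytic LgBiT detection. Percent response used unmodified K562 and DMSO-treated knock-in controls, and IC50 came from a four-parameter fit at 50% of untreated.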

[2] = test system: K562 cells; assay: Cell Titer Glo 2.0 cell viability (toxicity) assay, K562; details: 500 cells/well, 72 hours
[3] = test system: HTT mRNA; assay: RT-qPCR splicing assay, HTT mRNA canonical (CJ) and alternative (AJ) junction; type: cell-based, human; details: Homo sapiens; for AC50: HTT alternative junction mRNA increase, read-out: HTT AJ (increase in alternative junction mRNA, AC50)
Outline: (§1)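 Canonical and alternative-exon junction isoforms were quantified by RT-qPCR in cell lysates, with ΔCt against a housekeeper (GAPDH/GUSB/PPIA), then ΔΔCt vs DMSO, converted to 2^(−ΔΔCt) and percent response. K562 or A673 cells were exposed for 24 h to 11 concentrations (3-fold, top final 10 uM).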

[4] = test system: MYB mRNA; assay: RT-qPCR splicing assay, MYB mRNA canonical (CJ) and alternative (AJ) junction; type: cell-based, human; details: Homo sapiens; for AC50: MYB alternative junction mRNA increase, read-out: MYB AJ (increase in alternative junction mRNA, AC50)
Outline: as §1

[5] = RT-qPCR, HTT canonical junction mRNA decrease, read-out: HTT CJ (decrease in canonical junction mRNA, IC50)
[6] = canonical junction qPCR panel, Table 4, read-out: HTT IC50 (decrease in CJ mRNA levels)
[7] = RT-qPCR, MYB canonical junction mRNA decrease, read-out: MYB CJ (decrease in canonical junction mRNA, IC50)
[8] = canonical junction qPCR panel, Table 4, read-out: MYB IC50 (decrease in CJ mRNA levels)

What does the source list for `C[C@H]1CN(c2cc(F)c3nc(-c4cc(F)c5nn(C)cc5c4)ccc3c2)C[C@H](C)N1` (single isomer, unassigned) [Compound 760]?
IC50 [1]: 100 to 1000 nM; Effect of Exemplary Compounds on Cell Viability, K562 [2]: B (B represents 100-1000 nM); AC50 ([3]; RT-qPCR): 100 to 1000 nM; IC50 [3, 5]: < 100 nM; IC50 [3, 6]: < 100 nM; AC50 ([4]; RT-qPCR): 100 to 1000 nM; IC50 [4, 7]: < 100 nM; IC50 [4, 8]: < 100 nM

With `C[C@H]1CN(c2cc(F)c3nc(-c4cc5cn(C)nc5cc4O)ccc3c2)C[C@H](C)N1` (single isomer, unassigned) [Compound 770] as the compound, how does the IC50 [1] read?
Its IC50 is 100 to 1000 nM.

What about the “Effect of Exemplary Compounds on Cell Viability, K562” value (from here on “Effect of Exemplary Compounds”) [2] of the same compound?
The value was “B (B represents 100-1000 nM)”.

What about the AC50 ([3]; RT-qPCR) of the same compound?
Its AC50 is 100 to 1000 nM.

And the IC50 [3, 5]?
The IC50 was 100 to 1000 nM.

What about the IC50 [3, 6] of the same compound?
The IC50 was 100 to 1000 nM.

And the AC50 ([4]; RT-qPCR)?
The AC50 was under 100 nM.

What about the IC50 [4, 7] of the same compound?
Its IC50 is under 100 nM.

What about the IC50 [4, 8] of the same compound?
The IC50 was under 100 nM.

How did the IC50 [1] turn out when `Cc1cn2nc(-c3ccc4cc(N5C[C@H](C)N[C@@H](C)C5)cc(F)c4n3)cc(C)c2n1` (single isomer, unassigned) [Compound 799] was run?
Its IC50 is 100 to 1000 nM.

What about the “Effect of Exemplary Compounds” value [2] of the same compound?
Its value is “B (B represents 100-1000 nM)”.

What about the AC50 ([3]; RT-qPCR) of the same compound?
The AC50 was 100 to 1000 nM.

What about the IC50 [3, 5] of the same compound?
The IC50 was 100 to 1000 nM.

What about the IC50 [3, 6] of the same compound?
Its IC50 is 100 to 1000 nM.

What about the AC50 ([4]; RT-qPCR) of the same compound?
The AC50 was 100 to 1000 nM.

What about the IC50 [4, 7] of the same compound?
Its IC50 is under 100 nM.

What about the IC50 [4, 8] of the same compound?
The IC50 was under 100 nM.

What does the source list for `Cc1c(O)c(-c2ccc3cc(N4C[C@H](C)N[C@@H](C)C4)cc(F)c3n2)cc2cn(C)nc12` (single isomer, unassigned) [Compound 800, 2,2,2-trifluoroacetate]?
IC50 [1]: < 100 nM; Effect of Exemplary Compounds on Cell Viability, K562 [2]: A (A represents <100 nM); AC50 ([3]; RT-qPCR): < 100 nM; IC50 [3, 5]: < 100 nM; IC50 [3, 6]: < 100 nM; AC50 ([4]; RT-qPCR): < 100 nM; IC50 [4, 7]: < 100 nM; IC50 [4, 8]: < 100 nM

Which IC50 [1] does the source give for `Cc1nc(-c2cc3cn(C)nc3cc2O)nc2ccc(N3C[C@H](C)N[C@@H](C)C3)cc12` (single isomer, unassigned) [Compound 806] here?
Its IC50 is 1000 to 10000 nM.

And the “Effect of Exemplary Compounds” value [2]?
The value was “B (B represents 100-1000 nM)”.

What about the AC50 ([3]; RT-qPCR) of the same compound?
The AC50 was 1000 to 10000 nM.

What about the IC50 [3, 5] of the same compound?
Its IC50 is over 10000 nM.

And the IC50 [3, 6]?
The IC50 was over 10000 nM.

And the AC50 ([4]; RT-qPCR)?
The AC50 was 100 to 1000 nM.

What about the IC50 [4, 7] of the same compound?
Its IC50 is under 100 nM.

What about the IC50 [4, 8] of the same compound?
The IC50 was under 100 nM.

For `Cc1nc(-c2cc3cn(C)nc3c(C)c2O)nc2ccc(N3C[C@H](C)N[C@@H](C)C3)cc12` (single isomer, unassigned) [Compound 807], which IC50 [1] is on record?
The IC50 was over 10000 nM.

And the “Effect of Exemplary Compounds” value [2]?
The value was “B (B represents 100-1000 nM)”.

What about the AC50 ([3]; RT-qPCR) of the same compound?
Its AC50 is 1000 to 10000 nM.

What about the IC50 [3, 5] of the same compound?
Its IC50 is over 10000 nM.

What about the IC50 [3, 6] of the same compound?
Its IC50 is over 10000 nM.

What about the AC50 ([4]; RT-qPCR) of the same compound?
The AC50 was under 100 nM.

And the IC50 [4, 7]?
The IC50 was under 100 nM.

And the IC50 [4, 8]?
Its IC50 is under 100 nM.

What does the source list for `Cc1c(O)c(-c2nc(C(N)=O)c3cc(N4C[C@H](C)N[C@@H](C)C4)ccc3n2)cc2cn(C)nc12` [Compound 796]?
IC50 [1]: 100 to 1000 nM; Effect of Exemplary Compounds on Cell Viability, K562 [2]: A (A represents <100 nM); AC50 ([3]; RT-qPCR): 100 to 1000 nM; IC50 [3, 5]: 100 to 1000 nM; IC50 [3, 6]: 100 to 1000 nM; AC50 ([4]; RT-qPCR): < 100 nM; IC50 [4, 7]: < 100 nM; IC50 [4, 8]: < 100 nM

With `C[C@H]1CN(c2ccc3nc(-c4cc5cn(C)nc5cc4O)nc(C(N)=O)c3c2)C[C@H](C)N1` [Compound 797] as the compound, how does the IC50 [1] read?
The IC50 was 1000 to 10000 nM.

What about the “Effect of Exemplary Compounds” value [2] of the same compound?
The value was “A (A represents <100 nM)”.

What about the AC50 ([3]; RT-qPCR) of the same compound?
The AC50 was 100 to 1000 nM.

And the IC50 [3, 5]?
Its IC50 is 1000 to 10000 nM.

What about the IC50 [3, 6] of the same compound?
The IC50 was 1000 to 10000 nM.

And the AC50 ([4]; RT-qPCR)?
Its AC50 is under 100 nM.

What about the IC50 [4, 7] of the same compound?
The IC50 was under 100 nM.

What about the IC50 [4, 8] of the same compound?
The IC50 was under 100 nM.

Which IC50 [1] does the source give for `Cc1c(O)c(-c2ccc3cc(N4CCNC5(CC5)C4)cc(F)c3n2)cc2cn(C)nc12` [Compound 805, 5-(6-{4,7-diazaspiro[2.5]octan-7-yl}-8-fluoroquinolin-2-yl)-2,7-dimethylindazol-6-ol] here?
Its IC50 is 100 to 1000 nM.

What about the “Effect of Exemplary Compounds” value [2] of the same compound?
The value was “B (B represents 100-1000 nM)”.

What about the AC50 ([3]; RT-qPCR) of the same compound?
The AC50 was 100 to 1000 nM.

And the IC50 [3, 5]?
Its IC50 is under 100 nM.

And the IC50 [3, 6]?
Its IC50 is under 100 nM.

And the AC50 ([4]; RT-qPCR)?
Its AC50 is under 100 nM.

What about the IC50 [4, 7] of the same compound?
The IC50 was under 100 nM.

And the IC50 [4, 8]?
The IC50 was under 100 nM.

Source: US20250092065A1, “2-(INDAZOL-5-YL)-6-(PIPERIDIN-4-YL)-1,7-NAPHTHYRIDINE DERIVATIVES AND RELATED COMPOUNDS AS MODULATORS FOR SPLICING NUCLEIC ACIDS AND FOR THE TREATMENT OF PROLIFERATIVE DISEASES” (REMIX THERAPEUTICS INC., priority 2022, published 2025)
